Assays:
[1] = target: mutEGFR (D770_N771insSVD) (Homo sapiens, UniProt P00533, INS767SVD); assay: Exon20-mutant-EGFR (D770_N771insSVD) TR-FRET kinase assay; format: biochemical; settings: 2 mM ATP, 15 min preincubation
How it was run: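 GST-fused human EGFR fragment R669-A1210 carrying the SVD insertion, Sf9-expressed, typically 15 pg/μl, was preincubated with compound for 15 min at 22° C in pH 7.0 Hepes/MgCl2 buffer. Phosphorylation was read by HTRF (665/620 nm ratio), normalised to no-inhibitor and no-enzyme controls.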

[2] = target: mutEGFR (D770_N771insNPG, T790); assay: mutEGFR (D770_N771insNPG, T790) kinase assay; format: biochemical, human
BA/F3 (insSVD) cells = assay: Ba/F3 cell survival assay (Cell Titer-Glo), EGFR-insSVD; format: cell-based; settings: Mus musculus, BaF3, 48 h, without IL-3, with EGF
How it was run: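 Ba/F3 cells stably expressing EGFR-insSVD or insSVD T790M via retrovirus (puromycin-selected), switched from IL-3 to 10 ng/mL EGF for 2 days, then plated at 4000 cells/well. Compound added by 100 nL pin transfer; 48 h at 37° C. Viability by CellTiter-Glo luminescence.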

Sequence of mutEGFR (D770_N771insNPG, T790) (P00533 with tags, fused parts or gaps INS770NPG limits assumed): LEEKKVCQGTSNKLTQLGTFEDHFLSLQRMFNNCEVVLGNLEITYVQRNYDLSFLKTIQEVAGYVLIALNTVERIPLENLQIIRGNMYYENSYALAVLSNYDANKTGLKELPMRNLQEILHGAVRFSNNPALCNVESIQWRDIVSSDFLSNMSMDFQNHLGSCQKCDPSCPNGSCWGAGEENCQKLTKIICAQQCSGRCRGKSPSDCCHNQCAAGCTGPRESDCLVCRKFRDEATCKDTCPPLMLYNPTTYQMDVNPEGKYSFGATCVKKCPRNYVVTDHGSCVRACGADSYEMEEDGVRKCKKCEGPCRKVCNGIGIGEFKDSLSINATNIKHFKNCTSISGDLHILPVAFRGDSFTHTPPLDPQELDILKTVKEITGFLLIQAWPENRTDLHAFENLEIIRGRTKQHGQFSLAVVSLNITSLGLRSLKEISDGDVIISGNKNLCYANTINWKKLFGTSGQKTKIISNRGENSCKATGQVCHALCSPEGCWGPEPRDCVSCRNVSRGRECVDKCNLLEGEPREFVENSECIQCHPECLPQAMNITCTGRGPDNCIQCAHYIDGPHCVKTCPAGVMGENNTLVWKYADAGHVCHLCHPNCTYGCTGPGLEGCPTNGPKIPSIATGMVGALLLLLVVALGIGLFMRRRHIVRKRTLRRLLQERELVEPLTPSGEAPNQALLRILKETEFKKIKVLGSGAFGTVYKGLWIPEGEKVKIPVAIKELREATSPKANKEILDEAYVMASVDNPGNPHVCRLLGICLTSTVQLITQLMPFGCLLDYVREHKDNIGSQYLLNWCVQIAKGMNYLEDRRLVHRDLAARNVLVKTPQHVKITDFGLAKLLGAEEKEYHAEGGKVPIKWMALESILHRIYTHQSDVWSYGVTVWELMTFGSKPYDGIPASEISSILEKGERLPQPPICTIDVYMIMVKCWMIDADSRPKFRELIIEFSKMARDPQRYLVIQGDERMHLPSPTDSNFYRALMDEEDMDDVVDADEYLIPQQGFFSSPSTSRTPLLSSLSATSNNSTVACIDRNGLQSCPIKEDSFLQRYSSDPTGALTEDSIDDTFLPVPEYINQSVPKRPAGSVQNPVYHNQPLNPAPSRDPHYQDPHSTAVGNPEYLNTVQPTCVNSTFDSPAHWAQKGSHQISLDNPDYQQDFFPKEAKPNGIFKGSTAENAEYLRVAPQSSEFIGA
Sequence of mutEGFR (D770_N771insSVD) (P00533 with tags, fused parts or gaps INS767SVD limits assumed): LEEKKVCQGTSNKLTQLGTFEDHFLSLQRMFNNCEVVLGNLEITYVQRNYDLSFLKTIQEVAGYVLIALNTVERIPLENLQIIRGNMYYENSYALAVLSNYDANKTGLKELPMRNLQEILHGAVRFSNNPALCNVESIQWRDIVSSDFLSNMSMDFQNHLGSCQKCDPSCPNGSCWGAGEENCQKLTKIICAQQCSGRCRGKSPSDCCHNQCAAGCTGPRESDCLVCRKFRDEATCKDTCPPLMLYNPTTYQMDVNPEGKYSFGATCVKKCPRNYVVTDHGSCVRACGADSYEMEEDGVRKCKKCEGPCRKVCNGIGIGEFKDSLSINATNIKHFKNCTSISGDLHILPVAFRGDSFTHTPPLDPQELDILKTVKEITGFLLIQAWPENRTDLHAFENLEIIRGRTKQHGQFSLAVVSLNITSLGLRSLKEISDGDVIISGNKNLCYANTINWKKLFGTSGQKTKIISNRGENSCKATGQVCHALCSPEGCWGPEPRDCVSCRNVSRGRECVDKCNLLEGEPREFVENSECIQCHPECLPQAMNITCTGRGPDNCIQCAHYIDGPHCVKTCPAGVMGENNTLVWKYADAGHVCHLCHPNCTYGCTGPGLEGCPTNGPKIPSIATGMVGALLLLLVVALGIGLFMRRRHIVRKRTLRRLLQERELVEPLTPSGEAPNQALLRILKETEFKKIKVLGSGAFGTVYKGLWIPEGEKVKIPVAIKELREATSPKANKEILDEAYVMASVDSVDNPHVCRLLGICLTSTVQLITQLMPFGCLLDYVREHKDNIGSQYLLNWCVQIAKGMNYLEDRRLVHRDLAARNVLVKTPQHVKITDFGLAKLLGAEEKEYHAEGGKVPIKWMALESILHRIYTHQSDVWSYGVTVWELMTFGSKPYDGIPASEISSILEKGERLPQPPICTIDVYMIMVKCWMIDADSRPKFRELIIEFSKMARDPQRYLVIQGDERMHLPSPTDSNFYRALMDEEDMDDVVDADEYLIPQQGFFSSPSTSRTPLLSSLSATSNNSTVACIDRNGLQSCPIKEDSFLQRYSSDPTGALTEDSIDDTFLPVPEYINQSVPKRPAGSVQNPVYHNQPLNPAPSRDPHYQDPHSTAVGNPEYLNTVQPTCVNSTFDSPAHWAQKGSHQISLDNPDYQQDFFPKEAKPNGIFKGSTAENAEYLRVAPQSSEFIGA

Row | Compound | IC50 [1] | IC50 [2] | IC50 (BA/F3 (insSVD) cells)
1 | C=CC(=O)N1CCC[C@H]1COc1cnccc1-c1[nH]c2cccnc2c1-c1cccc(F)c1F [Example 86, 1-{(2S)-2-[({4-[3-(2,3-difluorophenyl)-1H-pyrrolo[3,2-b]pyridin-2-yl]pyridin-3-yl}oxy)methyl]pyrrolidin-1-yl}prop-2-en-1-one] | 0.911 nM | 3.99 nM | 67 nM
2 | C=CC(=O)N1CCC[C@H]1COc1cnccc1-c1[nH]c2cccnc2c1-c1cccc(C#N)c1 [Example 87, 3-[2-(3-{[(2S)-1-(prop-2-enoyl)pyrrolidin-2-yl]methoxy}pyridin-4-yl)-1H-pyrrolo[3,2-b]pyridin-3-yl]benzonitrile] | 15.2 nM | 33.8 nM | 759 nM
3 | C=CC(=O)N1CCC[C@H]1COc1cnccc1-c1[nH]c2cccnc2c1-c1ccccc1Cl [Example 88, 1-{(2S)-2-[({4-[3-(2-chlorophenyl)-1H-pyrrolo[3,2-b]pyridin-2-yl]pyridin-3-yl}oxy)methyl]pyrrolidin-1-yl}prop-2-en-1-one] | 1.89 nM | 10.7 nM | 166 nM
4 | C=CC(=O)N1CCC[C@H]1COc1cnccc1-c1[nH]c2cccnc2c1-c1ccccc1F [Example 89, 1-{(2S)-2-[({4-[3-(2-fluorophenyl)-1H-pyrrolo[3,2-b]pyridin-2-yl]pyridin-3-yl}oxy)methyl]pyrrolidin-1-yl}prop-2-en-1-one] | 0.547 nM | 2.31 nM | 24.2 nM
5 | C=CC(=O)N1CCC[C@H]1COc1cnccc1-c1[nH]c2cccnc2c1-c1cc(C#N)ccc1F [Example 90, 4-fluoro-3-[2-(3-{[(2S)-1-(prop-2-enoyl)pyrrolidin-2-yl]methoxy}pyridin-4-yl)-1H-pyrrolo[3,2-b]pyridin-3-yl]benzonitrile] | 34.3 nM | 62.5 nM | 999 nM
6 | C=C(F)C(=O)N1CCC[C@H]1COc1cnccc1-c1[nH]c2cccnc2c1-c1ccccc1 [Example 91, 2-fluoro-1-[(2S)-2-({[4-(3-phenyl-1H-pyrrolo[3,2-b]pyridin-2-yl)pyridin-3-yl]oxy}methyl)pyrrolidin-1-yl]prop-2-en-1-one] | 77.3 nM | 769 nM | 1470 nM
7 | C/C=C/C(=O)N1CCC[C@H]1COc1cnccc1-c1[nH]c2cccnc2c1-c1ccccc1 [Example 92, (2E)-1-[(2S)-2-({[4-(3-phenyl-1H-pyrrolo[3,2-b]pyridin-2-yl)pyridin-3-yl]oxy}methyl)pyrrolidin-1-yl]but-2-en-1-one] | 3750 nM | > 20000 nM | 7050 nM
8 | C#CC(=O)N1CCC[C@H]1COc1cnccc1-c1[nH]c2cccnc2c1-c1ccccc1 [Example 93, 1-[(2S)-2-({[4-(3-phenyl-1H-pyrrolo[3,2-b]pyridin-2-yl)pyridin-3-yl]oxy}methyl)pyrrolidin-1-yl]prop-2-yn-1-one] | 1.02 nM | 3.14 nM | 55.3 nM
9 | CC#CC(=O)N1CCC[C@H]1COc1cnccc1-c1[nH]c2cccnc2c1-c1ccccc1 [Example 94, 1-[(2S)-2-({[4-(3-phenyl-1H-pyrrolo[3,2-b]pyridin-2-yl)pyridin-3-yl]oxy}methyl)pyrrolidin-1-yl]but-2-yn-1-one] | 365 nM | > 1630 nM | 2440 nM
10 | Cn1ccc(C#CC(=O)N2CCC[C@H]2COc2cnccc2-c2[nH]c3cccnc3c2-c2ccccc2)n1 [Example 95, 3-(1-methyl-1H-pyrazol-3-yl)-1-[(2S)-2-({[4-(3-phenyl-1H-pyrrolo[3,2-b]pyridin-2-yl)pyridin-3-yl]oxy}methyl)pyrrolidin-1-yl]prop-2-yn-1-one] | 71.2 nM | 246 nM | 682 nM
11 | CN(C)C/C=C/C(=O)N1CCC[C@H]1COc1cnccc1-c1[nH]c2cccnc2c1-c1cccc(C(F)(F)F)c1 [Example 96, (2E)-4-(dimethylamino)-1-[(2S)-2-{[(4-{3-[3-(trifluoromethyl)phenyl]-1H-pyrrolo[3,2-b]pyridin-2-yl}pyridin-3-yl)oxy]methyl}pyrrolidin-1-yl]but-2-en-1-one] | 3.45 nM | 22.1 nM | 373 nM
12 | CN(C)C/C=C/C(=O)N1CCC[C@H]1COc1cnccc1-c1[nH]c2cccnc2c1-c1cc(Cl)ccc1F [Example 97, (2E)-1-{(2S)-2-[({4-[3-(5-chloro-2-fluorophenyl)-1H-pyrrolo[3,2-b]pyridin-2-yl]pyridin-3-yl}oxy)methyl]pyrrolidin-1-yl}-4-(dimethylamino)but-2-en-1-one] | 2.03 nM | 8.62 nM | 179 nM
13 | CN(C)C/C=C\C(=O)N1CCC[C@H]1COc1cnccc1-c1[nH]c2cccnc2c1-c1ccccc1 [Example 98, (2Z)-4-(dimethylamino)-1-[(2S)-2-({[4-(3-phenyl-1H-pyrrolo[3,2-b]pyridin-2-yl)pyridin-3-yl]oxy}methyl)pyrrolidin-1-yl]but-2-en-1-one] | 14.6 nM | 59.1 nM | 747 nM
14 | O=C(/C=C/CN1CCCC1)N1CCC[C@H]1COc1cnccc1-c1[nH]c2cccnc2c1-c1ccccc1 [Example 99, (2E)-1-[(2S)-2-({[4-(3-phenyl-1H-pyrrolo[3,2-b]pyridin-2-yl)pyridin-3-yl]oxy}methyl)pyrrolidin-1-yl]-4-(pyrrolidin-1-yl)but-2-en-1-one] | 2.32 nM | 10.8 nM | 115 nM
15 | CN(C)CC#CC(=O)N1CCC[C@H]1COc1cnccc1-c1[nH]c2cccnc2c1-c1ccccc1 [Example 100, 4-(dimethylamino)-1-[(2S)-2-({[4-(3-phenyl-1H-pyrrolo[3,2-b]pyridin-2-yl)pyridin-3-yl]oxy}methyl)pyrrolidin-1-yl]but-2-yn-1-one] | 1.11 nM | 4.67 nM | 57.5 nM
16 | C=CS(=O)(=O)N1CCC[C@H]1COc1cnccc1-c1[nH]c2cccnc2c1-c1cc(C(F)(F)F)ccc1F [Example 101, 2-(3-{[(2S)-1-(ethenesulfonyl)pyrrolidin-2-yl]methoxy}pyridin-4-yl)-3-[2-fluoro-5-(trifluoromethyl)phenyl]-1H-pyrrolo[3,2-b]pyridine] | 52.2 nM | 89.8 nM | 957 nM
17 | C#Cc1cccc(-c2c(-c3ccncc3OC[C@@H]3CCCN3C(=O)C=C)[nH]c3cccnc23)c1 [Example 102, 1-{(2S)-2-[({4-[3-(3-ethynylphenyl)-1H-pyrrolo[3,2-b]pyridin-2-yl]pyridin-3-yl}oxy)methyl]pyrrolidin-1-yl}prop-2-en-1-one] | 0.417 nM | 1.29 nM | 135 nM
18 | C=CC(=O)N1CCC[C@H]1COc1cnccc1-c1[nH]c2cccnc2c1-c1ccc(F)c(OC(F)F)c1 [Example 103, 1-[(2S)-2-{[(4-{3-[3-(difluoromethoxy)-4-fluorophenyl]-1H-pyrrolo[3,2-b]pyridin-2-yl}pyridin-3-yl)oxy]methyl}pyrrolidin-1-yl]prop-2-en-1-one] | 3.56 nM | 16.9 nM | 650 nM
19 | CN(C)C/C=C/C(=O)N1CCC[C@H]1COc1cnccc1-c1[nH]c2cccnc2c1-c1ccc(F)c(OC(F)F)c1 [Example 104, (2E)-1-[(2S)-2-{[(4-{3-[3-(difluoromethoxy)-4-fluorophenyl]-1H-pyrrolo[3,2-b]pyridin-2-yl}pyridin-3-yl)oxy]methyl}pyrrolidin-1-yl]-4-(dimethylamino)but-2-en-1-one] | 36.9 nM | 149 nM | 1380 nM
20 | C=CS(=O)(=O)N1CCC[C@H]1COc1cnccc1-c1[nH]c2cccnc2c1-c1ccc(F)c(OC(F)F)c1 [Example 105, 3-[3-(difluoromethoxy)-4-fluorophenyl]-2-(3-{[(2S)-1-(ethenesulfonyl)pyrrolidin-2-yl]methoxy}pyridin-4-yl)-1H-pyrrolo[3,2-b]pyridine] | 0.207 nM | 0.537 nM | 31.1 nM
21 | C=CC(=O)N1CCC[C@H]1COc1cnccc1-c1[nH]c2cccnc2c1-c1ccc(F)c(OC(F)(F)F)c1 [Example 106, 1-[(2S)-2-{[(4-{3-[4-fluoro-3-(trifluoromethoxy)phenyl]-1H-pyrrolo[3,2-b]pyridin-2-yl}pyridin-3-yl)oxy]methyl}pyrrolidin-1-yl]prop-2-en-1-one] | 13.3 nM | 77.4 nM | 1630 nM
22 | CN(C)C/C=C/C(=O)N1CCC[C@H]1COc1cnccc1-c1[nH]c2cccnc2c1-c1ccc(F)c(OC(F)(F)F)c1 [Example 107, (2E)-4-(dimethylamino)-1-[(2S)-2-{[(4-{3-[4-fluoro-3-(trifluoromethoxy)phenyl]-1H-pyrrolo[3,2-b]pyridin-2-yl}pyridin-3-yl)oxy]methyl}pyrrolidin-1-yl]but-2-en-1-one] | 94.5 nM | 342 nM | 1510 nM
23 | C=CS(=O)(=O)N1CCC[C@H]1COc1cnccc1-c1[nH]c2cccnc2c1-c1ccc(F)c(OC(F)(F)F)c1 [Example 108, 2-(3-{[(2S)-1-(ethenesulfonyl)pyrrolidin-2-yl]methoxy}pyridin-4-yl)-3-[4-fluoro-3-(trifluoromethoxy)phenyl]-1H-pyrrolo[3,2-b]pyridine] | 0.557 nM | 2.41 nM | 70.4 nM
24 | C=CC(=O)N1CCC[C@H]1COc1cncc(F)c1-c1[nH]c2cccnc2c1-c1ccccc1 [Example 109, 1-[(2S)-2-({[5-fluoro-4-(3-phenyl-1H-pyrrolo[3,2-b]pyridin-2-yl)pyridin-3-yl]oxy}methyl)pyrrolidin-1-yl]prop-2-en-1-one] | 0.573 nM | 83.7 nM | 46.6 nM

Source: patent US20260035365A1, “1H-PYRROLO[3,2-B]PYRIDINE DERIVATIVES AS IRREVERSIBLE INHIBITORS OF MUTANT EGFR FOR THE TREATMENT OF CANCER” (Bayer Aktiengesellschaft, priority 2022, published 2026)
